Consider 16 compounds from US10821115B2, “Compounds that inhibit Mcl-1 protein” (priority 2017, dated 2020).

Where two headings read alike, the source gives them in different places.

Experiment [1] concerns human multiple myeloma cell line, OPM-2. In words: Cell viability assay (OPM-2 10 FBS), CellTiter-Glo. Format: cell-based. In a few lines:
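3000 cells/well, RPMI 1640 + 10% FBS; serial compound dilutions, 16 h, 37 °C/5% CO2.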
On the technique in general: ATP-based viability assays read luminescence as a measure of living cells.

The target of experiment [2] is recombinant human Mcl-1 (residues 171-327) / Bim interaction (Homo sapiens (Human), UniProt Q07820). In words: biochemical. The experiment is classed as binding. The conditions noted are these: read-out: Mcl-1 HTRF IC50. On the technique in general: Time-resolved FRET reads energy transfer from a long-lived donor to a nearby acceptor.
[3] abbreviates: Homo sapiens, OPM-2, 16 h, read-out: OPM-2 10% FBS IC50 IP, OPM-2 cells, 10% FBS, 16 h incubation.
Setting [4] is: 0.1 nM Mcl-1(171-327), 0.05 nM biotin-Bim (51-76).
Setting [5] is: Homo sapiens, OPM-2, 16 h, read-out: OPM-2 10% FBS IC50 IP, OPM-2 cells, 10% FBS, 16 h, CellTiter-Glo.
Setting [6] is: TR-FRET, Mcl-1(171-327) / biotin-Bim (51-76).
[7] abbreviates: read-out: OPM-2 10% FBS IC50 IP, OPM-2 cells, 10% FBS, 16 h, CellTiter-Glo.
[8] abbreviates: read-out: OPM-2 10% FBS IC50 IP, OPM-2 cells, 10% FBS, 16 h incubation.

Chain of recombinant human Mcl-1 (residues 171-327) / Bim interaction (Q07820 171-327): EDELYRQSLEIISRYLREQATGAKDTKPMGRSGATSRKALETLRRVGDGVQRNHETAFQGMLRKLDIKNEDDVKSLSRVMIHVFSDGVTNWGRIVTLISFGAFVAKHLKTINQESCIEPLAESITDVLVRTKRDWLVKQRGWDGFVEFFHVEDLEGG

As to `CO[C@@]1(CN2CCN(CC(F)F)CC2)/C=C/C[C@H](C)[C@@H](C)S(=O)(=O)NC(=O)c2ccc3c(c2)N(C[C@@H]2CC[C@H]21)C[C@@]1(CCCc2cc(Cl)ccc21)CO3` [Example 306, (1S,3′R,6′R,7′S,8′E,11′S,12′R)-6-chloro-7′-((4-(2,2-difluoroethyl)-1-piperazinyl)methyl)-7′-methoxy-11′,12′-dimethyl-3,4-dihydro-2H,15′H-spiro[naphthalene-1,22′-[20]oxa[13]thia[1,14]diazatetracyclo [14.7.2.0~3,6~.0~19,24~]pentacosa[8,16,18,24]tetraen]-15′-one 13′,13′-dioxide], the IC50 turned out to be 246 nM in experiment [1] (setting [3]) and 0.282 nM in experiment [2] (setting [4]).

Take `Cc1ncoc1C[C@]1(O)/C=C/C[C@H](C)[C@@H](C)S(=O)(=O)NC(=O)c2ccc3c(c2)N(C[C@@H]2CC[C@H]21)C[C@@]1(CCCc2cc(Cl)ccc21)CO3` [Example 100572, (1S,3′R,6′R,7′S,8′E,11′S,12′R)-6-chloro-7′-hydroxy-11′,12′-dimethyl-7′-((4-methyl-1,3-oxazol-5-yl)methyl)-3,4-dihydro-2H,15′H-spiro[naphthalene-1,22′-[20]oxa[13]thia[1,14]diazatetracyclo [14.7.2.0~3,6~.0~19,24~]pentacosa[8,16,18,24]tetraen]-15′-one 13′,13′-dioxide]: the IC50 in experiment [1] (setting [5]) worked out at 1160 nM; in experiment [2] (setting [6]), 0.174 nM.

In the case of `CO[C@]1(C[C@H](O)C(C)C)/C=C/C[C@H](C)[C@@H](C)S(=O)(=O)NC(=O)c2ccc3c(c2)N(C[C@@H]2CC[C@H]21)C[C@@]1(CCCc2cc(Cl)ccc21)CO3` [Example 100359, (1S,3′R,6′R,7′R,8′E,11′S,12′R)-6-chloro-7′-((2S)-2-hydroxy-3-methylbutyl)-7′-methoxy-11′,12′-dimethyl-3,4-dihydro-2H,15′H-spiro[naphthalene-1,22′-[20]oxa[13]thia[1,14]diazatetracyclo [14.7.2.0~3,6~.0~19,24~]pentacosa[8,16,18,24]tetraen]-15′-one 13′,13′-dioxide], the IC50 in experiment [1] (setting [7]) was 1540 nM; in experiment [2] (setting [6]) it was 1.2 nM.

For the compound `COCC[C@@H]1[C@@H](C)C/C=C/[C@](CN2CCN(C3COC3)CC2)(OC)[C@@H]2CC[C@H]2CN2C[C@@]3(CCCc4cc(Cl)ccc43)COc3ccc(nc32)C(=O)NS1(=O)=O` [Example 23, (1S,3′R,6′R,7′S,8′E,11′S,12′R)-6-chloro-7′-methoxy-12′-(2-methoxyethyl)-11′-methyl-7′-((4-(3-oxetanyl)-1-piperazinyl)methyl)-3,4-dihydro-2H,15′H-spiro[naphthalene-1,22′-[20]oxa[13]thia[1,14,25]triazatetracyclo [14.7.2.0~3,6~.0~19,24~]pentacosa[8,16,18,24]tetraen]-15′-one 13′,13′-dioxide], the IC50 in experiment [1] (setting [3]) was found to be 24 nM; in experiment [2] (setting [4]) it was 0.071 nM.

`CCOC1(CN2CCN(C(C)C)CC2)/C=C/C[C@H](C)[C@@H](C)S(=O)(=O)NC(=O)c2ccc3c(c2)N(C[C@@H]2CC[C@H]21)C[C@@]1(CCCc2cc(Cl)ccc21)CO3` (stereo in doubt) [Example 115, (1S,3′R,6′R,7′R,8′E,11′S,12′R)-6-chloro-7′-ethoxy-11′,12′-dimethyl-7′-((4-(1-methylethyl)-1-piperazinyl)methyl)-3,4-dihydro-2H,15′H-spiro[naphthalene-1,22′-[20]oxa[13]thia[1,14]diazatetracyclo [14.7.2.0~3,6~.0~19,24~]pentacosa[8,16,18,24]tetraen]-15′-one 13′,13′-dioxide]: the IC50 in experiment [1] (setting [3]) was 686 nM; in experiment [2] (setting [4]), 1.37 nM.

As for `C[C@@H]1[C@@H](C)C/C=C/[C@@](O)(c2cnc(Cl)n2C)[C@@H]2CC[C@H]2CN2C[C@@]3(CCCc4cc(Cl)ccc43)COc3ccc(cc32)C(=O)NS1(=O)=O` (single isomer, unassigned) [Example 100551], the IC50 worked out at 142 nM in experiment [1] (setting [5]) and 0.174 nM in experiment [2] (setting [6]).

Turning to `CC[C@@H]1CCCC[C@](O)(COC)[C@@H]2CC[C@H]2CN2C[C@@]3(CCCc4cc(Cl)ccc43)COc3ccc(cc32)C(=O)NS1(=O)=O` [Example 100040, (1S,3′R,6′R,7′R,12′R)-6-chloro-12′-ethyl-7′-hydroxy-7′-(methoxymethyl)-3,4-dihydro-2H,15′H-spiro[naphthalene-1,22′-[20]oxa[13]thia[1,14]diazatetracyclo [14.7.2.0~3,6~.0~19,24~]pentacosa[16,18,24]trien]-15′-one 13′,13′-dioxide], the figures for the IC50 in experiment [1] (setting [5]) and in experiment [2] (setting [6]) were 4950 nM and 2.75 nM, respectively.

In the case of `CC[C@@H]1CC/C=C/[C@@](CN2CCN3CCCC[C@@H]3C2)(OC)[C@@H]2CC[C@H]2CN2C[C@@]3(CCCc4cc(Cl)ccc43)COc3ccc(cc32)C(=O)NS1(=O)=O` [Example 32, (1S,3′R,6′R,7′R,8′E,12′R)-6-chloro-12′-ethyl-7′-methoxy-7′-((9aR)-octahydro-2H-pyrido[1,2-a]pyrazin-2-ylmethyl)-3,4-dihydro-2H,15′H-spiro[naphthalene-1,22′-[20]oxa[13]thia[1,14]diazatetracyclo [14.7.2.0~3,6~.0~19,24~]pentacosa[8,16,18,24]tetraen]-15′-one 13′,13′-dioxide], the IC50 worked out at 147 nM in experiment [1] (setting [3]) and 0.128 nM in experiment [2] (setting [4]).

Regarding `CO[C@]1(CN2CCN(C3CCC3)CC2)/C=C/C[C@H](C)[C@@H](C)S(=O)(=O)NC(=O)c2ccc3c(c2)N(C[C@@H]2CC[C@H]21)C[C@@]1(CCCc2cc(Cl)ccc21)CO3` [Example 92, (1S,3′R,6′R,7′R,8′E,11′S,12′R)-6-chloro-7′-((4-cyclobutyl-1-piperazinyl)methyl)-7′-methoxy-11′,12′-dimethyl-3,4-dihydro-2H,15′H-spiro[naphthalene-1,22′-[20]oxa[13]thia[1,14]diazatetracyclo [14.7.2.0~3,6~.0~19,24~]pentacosa[8,16,18,24]tetraen]-15′-one 13′,13′-dioxide], the IC50 was 199 nM in experiment [1] (setting [3]) and 0.143 nM in experiment [2] (setting [4]).

In the case of `CO[C@@]1(CN2CCN3CCN(C)C[C@@H]3C2)/C=C/C[C@H](C)[C@@H](C)S(=O)(=O)NC(=O)c2ccc3c(c2)N(C[C@@H]2CC[C@H]21)C[C@@]1(CCCc2cc(Cl)ccc21)CO3` [Example 210], the IC50 in experiment [1] (setting [8]) amounted to 185 nM; in experiment [2] (setting [4]) it was 0.138 nM.

Consider `CO[C@]1(CN2CCN3CCN(S(C)(=O)=O)C[C@@H]3C2)/C=C/C[C@H](C)[C@@H](C)S(=O)(=O)NC(=O)c2ccc3c(c2)N(C[C@@H]2CC[C@H]21)C[C@@]1(CCCc2cc(Cl)ccc21)CO3` (single isomer, unassigned) [Example 238], for which the figures for the IC50 in experiment [1] (setting [8]) and in experiment [2] (setting [4]) were 76 nM and 0.176 nM, respectively.

Turning to `Cc1cc(C[C@@]2(O)/C=C/C[C@H](C)[C@@H](C)S(=O)(=O)NC(=O)c3ccc4c(c3)N(C[C@@H]3CC[C@H]32)C[C@@]2(CCCc3cc(Cl)ccc32)CO4)no1` [Example 100540, (1S,3′R,6′R,7′R,8′E,11′S,12′R)-6-chloro-7′-hydroxy-11′,12′-dimethyl-7′-((5-methyl-1,2-oxazol-3-yl)methyl)-3,4-dihydro-2H,15′H-spiro[naphthalene-1,22′-[20]oxa[13]thia[1,14]diazatetracyclo [14.7.2.0~3,6~.0~19,24~]pentacosa[8,16,18,24]tetraen]-15′-one 13′,13′-dioxide], the results for the IC50 in experiment [1] (setting [5]) and in experiment [2] (setting [6]) were 320 nM and 0.275 nM, respectively.

For `COCC(COC)N1CCN(C[C@@]2(OC)/C=C/C[C@H](C)[C@@H](C)S(=O)(=O)NC(=O)c3ccc4c(c3)N(C[C@@H]3CC[C@H]32)C[C@@]2(CCCc3cc(Cl)ccc32)CO4)CC1` [Example 304, (1S,3′R,6′R,7′R,8′E,11′S,12′R)-6-chloro-7′-methoxy-7′-((4-(2-methoxy-1-(methoxymethyl)ethyl)-1-piperazinyl)methyl)-11′,12′-dimethyl-3,4-dihydro-2H,15′H-spiro[naphthalene-1,22′-[20]oxa[13]thia[1,14]diazatetracyclo [14.7.2.0~3,6~.0~19,24~]pentacosa[8,16,18,24]tetraen]-15′-one 13′,13′-dioxide], the IC50 in experiment [1] (setting [3]) was determined as 239 nM; in experiment [2] (setting [4]), 0.226 nM.

Consider `CO[C@@]1(CN2CCN3CC[C@H](F)C[C@@H]3C2)/C=C/C[C@H](C)[C@@H](C)S(=O)(=O)NC(=O)c2ccc3c(c2)N(C[C@@H]2CC[C@H]21)C[C@@]1(CCCc2cc(Cl)ccc21)CO3` (single isomer, unassigned) [Example 283], for which the results for the IC50 in experiment [1] (setting [8]) and in experiment [2] (setting [4]) were 839 nM and 0.354 nM, respectively.

In the case of `CCN(CC)C(=O)C[C@]1(O)CCC[C@H](C)[C@@H](C)S(=O)(=O)NC(=O)c2ccc3c(c2)N(C[C@@H]2CC[C@H]21)C[C@@]1(CCCc2cc(Cl)ccc21)CO3` [Example 100112, 2-((1S,3′R,6′R,7′R,11′S,12′R)-6-chloro-7′-hydroxy-11′,12′-dimethyl-13′,13′-dioxido-15′-oxo-3,4-dihydro-2H-spiro[naphthalene-1,22′-[20]oxa[13]thia[1,14]diazatetracyclo [14.7.2.0~3,6~.0~19,24~]pentacosa[16,18,24]trien]-7′-yl)-N,N-diethylacetamide], the IC50 in experiment [1] (setting [7]) came out at 1800 nM; in experiment [2], 1.29 nM.

Regarding `CC#C[C@]1(O)CCC[C@H](C)[C@@H](C)S(=O)(=O)NC(=O)c2ccc3c(c2)N(C[C@@H]2CC[C@H]21)C[C@@]1(CCCc2cc(Cl)ccc21)CO3` [Example 100268, (1S,3′R,6′R,7′S,11′S,12′R)-6-chloro-7′-hydroxy-11′,12′-dimethyl-7′-(1-propyn-1-yl)-3,4-dihydro-2H,15′H-spiro[naphthalene-1,22′-[20]oxa[13]thia[1,14]diazatetracyclo [14.7.2.0~3,6~.0~19,24~]pentacosa[16,18,24]trien]-15′-one 13′,13′-dioxide], the IC50 in experiment [1] (setting [7]) came out at 3810 nM; in experiment [2], 3.44 nM.

What is called IC50 is the midpoint of a concentration-inhibition curve.
